Reference: US5849770A, “Tri-substituted phenyl derivatives useful as PDE IV inhibitors” (Celltech Therapeutics Ltd., priority 1995, dated 1998)
Counter-ions that a name gives are not always drawn.

Legend:
[1] = Rat hepatocyte metabolism; type: in vitro ADME; conditions: rat hepatocytes, after 3 h; read-out: percentage of compound remaining
Method: The quantity of compound remaining after a fixed period of time was then determined using mass spectroscopy.
Thus in one such test the compound of Example 1 was compared with a related compound particularly described in International Patent Specification No. WO94/14742 in which the phenylsulphonyl group in the compound of Example 1 is replaced by a hydrogen atom. After 3 h the percentage of each compound remaining was: […]

[2] = Plasma levels after oral administration to squirrel monkeys; type: in vivo; conditions: monkey, 10 mg/kg p.o., after 30 min, read-out: plasma level
Method: The same two compounds were also administered orally to squirrel monkeys at 10 mg/kg p.o,. and the plasma levels of each determined. After 1 h the […] compound was present at 1 μg/ml whereas after 30 min the compound of Example 1 was present at 34 μg/ml, thus illustrating the good oral availability of the compound.

human PDE IVA = biological target: T1, human PDE IVA (Homo sapiens, UniProt P27815); assay: Isolated recombinant human PDE IVA enzyme, phosphodiesterase activity; type: biochemical; conditions: 0.1 μM [3H]-cAMP, pH 7.5, 30° C.
T1 construct: made in house; host or cells: yeast (inducible vector)
T1 sequence (P27815 whole entry): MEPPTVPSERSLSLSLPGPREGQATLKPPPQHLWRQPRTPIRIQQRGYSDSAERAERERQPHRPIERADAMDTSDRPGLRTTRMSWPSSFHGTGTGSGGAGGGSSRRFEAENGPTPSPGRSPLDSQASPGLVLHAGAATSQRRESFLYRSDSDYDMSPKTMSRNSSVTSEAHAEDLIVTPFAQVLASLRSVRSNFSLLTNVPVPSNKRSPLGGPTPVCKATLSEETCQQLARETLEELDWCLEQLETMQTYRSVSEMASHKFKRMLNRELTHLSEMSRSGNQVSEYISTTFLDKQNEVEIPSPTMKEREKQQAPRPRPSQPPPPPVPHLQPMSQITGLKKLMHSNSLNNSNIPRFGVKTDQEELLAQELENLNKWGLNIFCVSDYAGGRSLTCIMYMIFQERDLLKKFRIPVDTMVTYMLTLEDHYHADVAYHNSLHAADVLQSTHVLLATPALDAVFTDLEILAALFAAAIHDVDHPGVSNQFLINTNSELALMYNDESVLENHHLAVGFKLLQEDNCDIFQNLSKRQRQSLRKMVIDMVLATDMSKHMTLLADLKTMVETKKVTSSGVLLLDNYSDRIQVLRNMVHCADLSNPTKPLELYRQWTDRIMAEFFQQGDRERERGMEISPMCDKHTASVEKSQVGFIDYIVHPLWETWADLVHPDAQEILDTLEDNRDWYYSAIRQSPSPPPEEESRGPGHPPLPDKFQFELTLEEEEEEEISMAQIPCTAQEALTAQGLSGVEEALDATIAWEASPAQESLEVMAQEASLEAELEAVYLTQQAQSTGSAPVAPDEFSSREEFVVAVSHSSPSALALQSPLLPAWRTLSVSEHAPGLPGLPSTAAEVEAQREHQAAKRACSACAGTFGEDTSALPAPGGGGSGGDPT
From the text: A gene encoding human PDE IV has been cloned from human monocytes (Livi, et al., 1990, Molecular and Cellular Biology, 10, 2678). Using similar procedures we have cloned human PDE IV genes from a number of sources including eosinophils, neutrophils, lymphocytes, monocytes, brain and neuronal tissues. These genes have been transfected into yeast using an inducible vector and various recombinant proteins have been expressed which have the biochemical characteristics of PDE IV (Beavo and Reifsnyder, 1990, TIPS, 11, 150). These recombinant enzymes, particularly the human eosinophil recombinant PDE IVA, have been used as the basis of a screen for potent, selective PDE IV inhibitors.
The enzymes were purified to isoenzyme homogeneity using standard chromatographic techniques.
Phosphodiesterase activity was assayed as follows. The reaction was conducted in 150 μl of standard mixture containing (final concentrations): 50 mM 2-[[tris(hydroxymethyl)methyl]amino]-1-ethanesulphonic acid (TES) --NaOH buffer (pH 7.5), 10 mM MgCl2, 0.1 μM [^3 H]-cAMP and vehicle or various concentrations of the test compounds. The reaction was initiated by addition of enzyme and conducted at 30° C. for between 5 to 30 min. The reaction was terminated by addition of 50 μl 2% trifluoroacetic acid containing [^14 C]-5'AMP for determining recovery of the product. An aliquot of the sample was then applied to a column of neutral alumina and the [^3 H]-cAMP eluted with 10 ml 0.1 TES-NaOH buffer (pH8). The [^3 H]-5'-AMP product was eluted with 2 ml 2M NaOH into a scintillation vial containing 10 ml of scintillation cocktail. Recovery of [^3 H]-5'AMP was determined using the [^14 C]-5'AMP and all assays were conducted in the linear range of the reaction. Results were expressed as IC50 values.

SMILES | remaining at 3 h [1] [%] | concentration at 0.5 h [2] [ng/mL] | IC50 (human PDE IVA) [nM]
COc1ccc([C@H](Cc2ccncc2)c2ccc(NC(=O)NS(=O)(=O)c3ccccc3)cc2)cc1OC1CCCC1 [Example 1, (R)-N-[4-{1-(3-Cyclopentyloxy-4-methoxyphenyl)-2-(4-pyridyl)ethyl}-phenyl]-N'-(phenylsulphonyl) urea, hydrochloride] | 56 | 34000 | 4
COc1ccc([C@H](Cc2ccncc2)c2ccc(NC(=O)NS(=O)(=O)c3ccc(C)cc3)cc2)cc1OC1CCCC1 [Example 2, (R)-N-[4-{1-(3-Cyclopentyloxy-4-methoxyphenyl)-2-(4-pyridyl)ethyl}-phenyl]-N'-(methylphenylsulphonyl) urea, hydrochloride] | – | – | 13.9
COc1ccc([C@H](Cc2ccncc2)c2ccc(NC(=O)NS(=O)(=O)c3ccc(Cl)cc3)cc2)cc1OC1CCCC1 [Example 3, (R)-N-[4-{1-(3-Cyclopentyloxy-4-methoxyphenyl)-2-(4-pyridyl)ethyl}-phenyl]-N'-(4-chlorophenylsulphonyl) urea, hydrochloride] | – | – | 17.6
